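Compound exposure: 48 hours, 5 concentrations, 96-well plates. GI50: concentration for 50% inhibition of growth.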 Active and inactive are the calls of the source. Rule as the data show it: active = GI50 up to about 1.1 µM and inactive = higher.
Assays:
Test in all cases: NCI-60 cell line screen, 48 h
OVCAR-8 = system: OVCAR-8
HOP-62 = system: HOP-62
OVCAR-4 = system: OVCAR-4
COLO 205 = system: COLO 205
A498 = system: A498
KM12 = system: KM12
SK-OV-3 = system: SK-OV-3
M14 = system: M14
OVCAR-5 = system: OVCAR-5
BT-549 = system: BT-549
SK-MEL-2 = system: SK-MEL-2
HCT-116 = system: HCT-116
UO-31 = system: UO-31
HT-29 = system: HT-29
PC-3 = system: PC-3
SNB-19 = system: SNB-19
MCF7 = system: MCF7
T47D = system: T47D
Hs-578T = system: Hs-578T
HL-60 = system: HL-60

Structure (SMILES) | GI50 (OVCAR-8) | GI50 (HOP-62) | GI50 (OVCAR-4) | GI50 (COLO 205) | GI50 (A498) | GI50 (KM12) | GI50 (SK-OV-3) | GI50 (M14) | GI50 (OVCAR-5) | GI50 (BT-549) | GI50 (SK-MEL-2) | GI50 (HCT-116) | GI50 (UO-31) | GI50 (HT-29) | GI50 (PC-3) | GI50 (SNB-19) | GI50 (MCF7) | GI50 (T47D) | GI50 (Hs-578T) | GI50 (HL-60)
COc1cc2nc(-c3cccs3)oc(=O)c2cc1OC | 53.1 µM (inactive) | 17.6 µM (inactive) | > 100 µM (inactive) | > 100 µM (inactive) | > 100 µM (inactive) | > 100 µM (inactive) | > 100 µM (inactive) | > 100 µM (inactive) | > 100 µM (inactive) | 42 µM (inactive) | > 100 µM (inactive) | 86.5 µM (inactive) | > 100 µM (inactive) | > 100 µM (inactive) | > 100 µM (inactive) | 47.3 µM (inactive) | > 100 µM (inactive) | > 100 µM (inactive) | 72.1 µM (inactive) | > 100 µM (inactive)
CCN(CC)c1ccc(C(=C2C=CC(=[N+](CC)CC)C=C2)c2ccc(N(CC)CC)cc2)cc1 | 0.0391 µM (active) | 0.238 µM (active) | 0.234 µM (active) | 0.0627 µM (active) | – | 0.0561 µM (active) | 0.0773 µM (active) | 0.175 µM (active) | 0.303 µM (active) | 0.0332 µM (active) | 0.117 µM (active) | 0.0493 µM (active) | 0.212 µM (active) | 0.0414 µM (active) | 0.0423 µM (active) | 0.101 µM (active) | 0.158 µM (active) | 0.106 µM (active) | 0.0889 µM (active) | 0.0303 µM (active)
N=C(N)N/N=C\c1c(-c2cccc([N+](=O)[O-])c2)nc2sc(Cl)cn12 | 2.75 µM (inactive) | – | 1.54 µM (inactive) | 1.93 µM (inactive) | 27.4 µM (inactive) | 2.32 µM (inactive) | – | 3.49 µM (inactive) | 3.91 µM (inactive) | 2.39 µM (inactive) | 1.96 µM (inactive) | – | 1.71 µM (inactive) | 1.73 µM (inactive) | 2.13 µM (inactive) | 2.45 µM (inactive) | 2.61 µM (inactive) | 1.64 µM (inactive) | 43.4 µM (inactive) | 2 µM (inactive)
CC(C)(CO)N1C(=O)c2ccccc2C1(O)c1ccc(Cl)cc1 (stereo not given) | > 100 µM (inactive) | > 100 µM (inactive) | 94 µM (inactive) | > 100 µM (inactive) | – | > 100 µM (inactive) | > 100 µM (inactive) | > 100 µM (inactive) | > 100 µM (inactive) | > 100 µM (inactive) | 37.8 µM (inactive) | > 100 µM (inactive) | 63.2 µM (inactive) | > 100 µM (inactive) | 44.3 µM (inactive) | > 100 µM (inactive) | > 100 µM (inactive) | 72.3 µM (inactive) | > 100 µM (inactive) | > 100 µM (inactive)
CCOC(=O)C1=[N+]([O-])OC2=C(O)CCCC21 (stereo not given) | > 100 µM (inactive) | > 100 µM (inactive) | > 100 µM (inactive) | > 100 µM (inactive) | > 100 µM (inactive) | > 100 µM (inactive) | > 100 µM (inactive) | > 100 µM (inactive) | > 100 µM (inactive) | > 100 µM (inactive) | > 100 µM (inactive) | > 100 µM (inactive) | > 100 µM (inactive) | > 100 µM (inactive) | > 100 µM (inactive) | > 100 µM (inactive) | > 100 µM (inactive) | > 100 µM (inactive) | > 100 µM (inactive) | –
CC(=O)N1N=C(c2cc(C)ccc2O)CC1c1cccc(Cl)c1 (stereo not given) | 27.4 µM (inactive) | 22.3 µM (inactive) | 13.7 µM (inactive) | 6.93 µM (inactive) | – | 5.7 µM (inactive) | 9.1 µM (inactive) | 15.1 µM (inactive) | 30.1 µM (inactive) | 33.3 µM (inactive) | 10.3 µM (inactive) | 13.8 µM (inactive) | 17.4 µM (inactive) | 6.97 µM (inactive) | 3.35 µM (inactive) | 6.08 µM (inactive) | 5.79 µM (inactive) | 23.1 µM (inactive) | 12.9 µM (inactive) | 8.53 µM (inactive)
C/C(=N\n1c(Cc2ccccc2)n[nH]c1=O)c1ccccc1 | > 100 µM (inactive) | – | > 100 µM (inactive) | > 100 µM (inactive) | > 100 µM (inactive) | > 100 µM (inactive) | – | > 100 µM (inactive) | > 100 µM (inactive) | > 100 µM (inactive) | > 100 µM (inactive) | > 100 µM (inactive) | > 100 µM (inactive) | > 100 µM (inactive) | > 100 µM (inactive) | > 100 µM (inactive) | > 100 µM (inactive) | > 100 µM (inactive) | > 100 µM (inactive) | > 100 µM (inactive)
O=[N+]([O-])c1ccc(N/N=C2/CC3=C2CCCCCCCCCC3)c([N+](=O)[O-])c1 | > 100 µM (inactive) | > 100 µM (inactive) | > 100 µM (inactive) | > 100 µM (inactive) | 88.9 µM (inactive) | > 100 µM (inactive) | > 100 µM (inactive) | > 100 µM (inactive) | > 100 µM (inactive) | > 100 µM (inactive) | > 100 µM (inactive) | > 100 µM (inactive) | > 100 µM (inactive) | > 100 µM (inactive) | > 100 µM (inactive) | > 100 µM (inactive) | > 100 µM (inactive) | > 100 µM (inactive) | 39.3 µM (inactive) | –

— ChEMBL document CHEMBL1201862, “PubChem BioAssay data set” (2004)
